Patent USRE45340E1, “Lentil plants having increased resistance to imidazolinone herbicides” (University of Saskatchewan, priority 2001, dated 2015)

What was measured:
[1] = tested on: AHAS; assay: Negative feedback inhibition assay of AHAS activity; type: biochemical, RH44 lentil and CDC Richlea lentil varieties; details: leucine and valine addition (FIG. 3)
From the text: FIG. 3 is a graph showing the inhibition of AHAS activity in RH44 and CDC Richlea lentil plants by a negative feedback inhibition assay.
The responses of the RH44 lentil variety and the CDC Richlea variety were identical in a negative feedback inhibition assay. As described earlier, AHAS is an enzyme active in the biosynthesis of leucine and valine. Under conditions of excess leucine and/or valine, the activity of AHAS is diminished. The ability of leucine and valine addition to inhibit AHAS activity was the same in the RH44 lentil and CDC Richlea lentil varieties, indicating very similar levels of expression and a lack of any discernible difference in AHAS function (FIG. 3).

[2] = tested on: transgenic rice; details: cited from earlier work
[3] = tested on: AHAS; assay: Inhibition of AHAS activity in RH44 lentil by imidazolinone herbicides; type: biochemical, lentil (Lens culinaris); details: RH44 lentil variety, compared with wild type CDC Richlea (FIG. 4, FIG. 5)
From the text: (§1) FIG. 4 is a graph showing the inhibition of AHAS activity in RH44 and CDC Richlea lentil plants by increasing concentrations of imazapic.
(§2) FIG. 5 is a graph showing the inhibition of AHAS activity in RH44 and CDC Richlea lentil plants by increasing concentrations of imazethapyr.
(§3) The AHAS activity in the wild type CDC Richlea lentil variety was inhibited by imazapic (CADRE®)) (FIG. 4) and imazethapyr (PURSUIT®) (FIG. 5) representative of all imidazolinone herbicides.
It is therefore likely that the gene primarily responsible for AHAS activity in the RH44 lentil has undergone a point mutation similar to that observed in corn, wheat and canola. This has made the isozyme coded for by this sequence resistant to imidazolinone inhibition. The wild type isozyme has no such mutation and therefore is susceptible to imidazolinone herbicide. Such a scenario would explain why AHAS activity drops 30 to 40% with the addition of maximum concentrations of imidazolinone herbicides.

[4] = tested on: AHAS; assay: Inhibition of AHAS activity in wild type CDC Richlea lentil by imidazolinone herbicides; type: biochemical, lentil (Lens culinaris); details: wild type CDC Richlea lentil variety; increasing herbicide concentrations (FIG. 4, FIG. 5)
From the text: as §1, §2, §3

| SMILES | ability to inhibit AHAS activity, RH44 versus CDC Richlea [1] | inhibition of AHAS activity [3] | inhibition of AHAS activity [4] | also measured |
| --- | --- | --- | --- | --- |
| CC(C)C[C@H](N)C(=O)O [leucine] | the same |  |  |  |
| COc1nc(C)nc(NC(=O)NS(=O)(=O)c2ccccc2Cl)n1 [chlorsulfuron] |  |  |  | differences in in vitro resistance ([2]; Arabidopsis ALS promoter replaced with the CaMV35S promoter): 40 fold; increase in in vitro resistance ([2]; transgenic rice containing a 35S/ALS transgene): 200 fold |
| CC(C)[C@H](N)C(=O)O [valine] | the same |  |  |  |
| Cc1cnc(C2=NC(=O)C(C)(C(C)C)N2)c(C(=O)O)c1 (centres unmarked) [imazapic] |  | not to the same extent as for the wild type lentil CDC Richlea | inhibited |  |
| CCc1cnc(C2=NC(C)(C(C)C)C(=O)N2)c(C(=O)O)c1 (centres unmarked) [imazethapyr] |  | not to the same extent as for the wild type lentil CDC Richlea | inhibited |  |
